Assay results as given in US10167262B2, “Herbicidal substituted 3-arylpyrazoles” (FMC CORPORATION, priority 2014, dated 2019).

What was measured:
Format in all cases: in vivo
[1] = system: barnyardgrass (Echinochloa crus-galli); experiment: Test B flooded paddy test, plant response rating 0-100; conditions: Flood, 250 g ai/ha; scale 0 to 100 (0 no effect, 100 complete control); 13 to 15 days
Method in brief: (§1)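 Compound was added to standing water 3 cm above soil, flood maintained, and plants held in a greenhouse before visual scoring against controls at 13 to 15 days.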

[2] = system: ducksalad (Heteranthera limosa); experiment: as above; conditions: Flood, 250 g ai/ha; scale 0 to 100 (0 no effect, 100 complete control); 13 to 15 days
Method in brief: as §1

rice (Oryza sativa) = experiment: as above; conditions: Flood, 250 g ai/ha; scale 0 to 100 (0 no effect, 100 complete control); 13 to 15 days
Method in brief: as §1

[3] = system: sedge, umbrella (small-flower umbrella sedge, Cyperus difformis); experiment: as above; conditions: Flood, 250 g ai/ha; scale 0 to 100 (0 no effect, 100 complete control); 13 to 15 days
Method in brief: as §1

[4] = system: canarygrass (Phalaris minor); experiment: Test C postemergence greenhouse test, plant response rating 0-100; conditions: for Plant response rating, Canarygrass: scale 0 to 100
Method in brief: (§2)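 Postemergence spray onto 1–4-leaf potted seedlings, greenhouse incubation 13–15 days. Visual percent-control rating (0–100) against untreated plants.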

[5] = system: deadnettle (henbit deadnettle, Lamium amplexicaule); experiment: as above; conditions: for Plant response rating, Deadnettle: scale 0 to 100
Method in brief: as §2

[6] = system: downy bromegrass (Bromus tectorum); experiment: as above; conditions: for Plant response rating, Bromegrass, Downy: scale 0 to 100
Method in brief: as §2

[7] = system: goosegrass (Eleusine indica); experiment: as above; conditions: for Plant response rating, Goosegrass: scale 0 to 100
Method in brief: as §2

[8] = system: green foxtail (Setaria viridis); experiment: as above; conditions: for Plant response rating, Foxtail, Green: scale 0 to 100
Method in brief: as §2

[9] = system: windgrass (Apera spica-venti); experiment: as above; conditions: for Plant response rating, Windgrass: scale 0 to 100
Method in brief: as §2

[10] = system: winter barley (Hordeum vulgare); experiment: as above; conditions: for Plant response rating, Barley: scale 0 to 100
Method in brief: as §2

[11] = system: woolly cupgrass (Eriochloa villosa); experiment: as above; conditions: for Plant response rating, Cupgrass, Woolly: scale 0 to 100
Method in brief: as §2

[12] = system: fall panicum (Panicum dichotomiflorum); experiment: Test E pre-/postemergence greenhouse test, plant response rating 0-100; conditions: scale 0 to 100; for Panicum, Fall plant response rating: Preemergence
Method in brief: (§3)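 Rated visually against controls 14-21 days after treatment on a 0-100 scale (100 = complete control). Pre- and postemergence sprays used a non-phytotoxic solvent mixture with surfactant. Preemergence seeds were in silt loam; postemergence plants were in peat-based medium at the 1- to 4-leaf stage (2-18 cm).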

soybean (Glycine max) = experiment: as above; conditions: scale 0 to 100; for Soybean plant response rating: Preemergence
Method in brief: as §3

[13] = system: waterhemp_RES2, (ALS & HPPD resistant common waterhemp, Amaranthus rudis); experiment: Test E postemergence greenhouse test, plant response rating 0-100; conditions: scale 0 to 100
Method in brief: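 Visual ratings, 0 (no effect) to 100 (complete control), made versus controls 14–21 days after postemergence application in the greenhouse. Plants were at 1- to 4-leaf stage (2–18 cm) in peat moss/vermiculite potting medium.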

C#CCn1cc(C(=O)c2ccccc2)c(-c2cc(Cl)cc(Cl)c2)n1 [Compound 39, [3-(3,5-dichlorophenyl)-1-(2-propyn-1-yl)-1H-pyrazol-4-yl]phenylmethanone]
Plant response rating, Barnyardgrass [1]: 0 | Plant response rating, Ducksalad [2]: 0 | Plant response rating, Rice (rice (Oryza sativa)): 0 | Plant response rating, Sedge, Umbrella [3]: 0 | Plant response rating (0 to 100), Canarygrass ([4]; 62 g ai/ha): 0 | Plant response rating (0 to 100), Canarygrass ([4]; 125 g ai/ha): 0 | Plant response rating, Canarygrass ([4]; 250 g ai/ha): 0 | Plant response rating, Canarygrass ([4]; 500 g ai/ha): 0 | Plant response rating (0 to 100), Deadnettle ([5]; 62 g ai/ha): 0 | Plant response rating (0 to 100), Deadnettle ([5]; 125 g ai/ha): 0 | Plant response rating, Deadnettle ([5]; 250 g ai/ha): 0 | Plant response rating, Deadnettle ([5]; 500 g ai/ha): 0 | Plant response rating (0 to 100), Bromegrass, Downy ([6]; 62 g ai/ha): 0 | Plant response rating (0 to 100), Bromegrass, Downy ([6]; 125 g ai/ha): 0 | Plant response rating, Bromegrass, Downy ([6]; 250 g ai/ha): 0 | Plant response rating, Bromegrass, Downy ([6]; 500 g ai/ha): 5 | Plant response rating (0 to 100), Goosegrass ([7]; 62 g ai/ha): 0 | Plant response rating (0 to 100), Goosegrass ([7]; 125 g ai/ha): 0 | Plant response rating, Goosegrass ([7]; 250 g ai/ha): 0 | Plant response rating, Goosegrass ([7]; 500 g ai/ha): 0 | Plant response rating (0 to 100), Foxtail, Green ([8]; 62 g ai/ha): 0 | Plant response rating (0 to 100), Foxtail, Green ([8]; 125 g ai/ha): 0 | Plant response rating, Foxtail, Green ([8]; 250 g ai/ha): 0 | Plant response rating, Foxtail, Green ([8]; 500 g ai/ha): 5 | Plant response rating (0 to 100), Windgrass ([9]; 62 g ai/ha): 0 | Plant response rating (0 to 100), Windgrass ([9]; 125 g ai/ha): 0 | Plant response rating, Windgrass ([9]; 250 g ai/ha): 0 | Plant response rating, Windgrass ([9]; 500 g ai/ha): 0 | Plant response rating (0 to 100), Barley ([10]; 62 g ai/ha): 0 | Plant response rating (0 to 100), Barley ([10]; 125 g ai/ha): 0 | Plant response rating, Barley ([10]; 250 g ai/ha): 0 | Plant response rating, Barley ([10]; 500 g ai/ha): 0 | Plant response rating (0 to 100), Cupgrass, Woolly ([11]; 62 g ai/ha): 0 | Plant response rating (0 to 100), Cupgrass, Woolly ([11]; 125 g ai/ha): 0 | Plant response rating, Cupgrass, Woolly ([11]; 250 g ai/ha): 0 | Plant response rating, Cupgrass, Woolly ([11]; 500 g ai/ha): 0 | pest or weed control at 31 g/ha ([12]; Panicum dichotomiflorum, post-emergence, Postemergence, 31 g ai/ha): 0% | pest or weed control at 62 g/ha ([12]; Panicum dichotomiflorum, post-emergence, Postemergence, 62 g ai/ha): 0% | pest or weed control at 125 g/ha ([12]; Panicum dichotomiflorum, post-emergence, Postemergence, 125 g ai/ha): 0% | pest or weed control at 250 g/ha ([12]; Panicum dichotomiflorum, post-emergence, Postemergence, 250 g ai/ha): 0% | pest or weed control at 500 g/ha ([12]; Panicum dichotomiflorum, post-emergence, Postemergence, 500 g ai/ha): 0% | Panicum, Fall plant response rating ([12]; 62 g ai/ha): 0 | Panicum, Fall plant response rating ([12]; 250 g ai/ha): 0 | plant injury at 31 g/ha (soybean (Glycine max); Glycine max, post-emergence, Postemergence, 31 g ai/ha): 0% | plant injury at 62 g/ha (soybean (Glycine max); Glycine max, post-emergence, Postemergence, 62 g ai/ha): 0% | plant injury at 125 g/ha (soybean (Glycine max); Glycine max, post-emergence, Postemergence, 125 g ai/ha): 0% | plant injury at 250 g/ha (soybean (Glycine max); Glycine max, post-emergence, Postemergence, 250 g ai/ha): 10% | plant injury at 500 g/ha (soybean (Glycine max); Glycine max, post-emergence, Postemergence, 500 g ai/ha): 20% | Soybean plant response rating (soybean (Glycine max); 62 g ai/ha): 0 | Soybean plant response rating (soybean (Glycine max); 125 g ai/ha): 0 | Soybean plant response rating (soybean (Glycine max); 250 g ai/ha): 0 | Soybean plant response rating (soybean (Glycine max); 500 g ai/ha): 0 | Plant response rating, Waterhemp_RES2 ([13]; 31 g ai/ha): 70 | Plant response rating, Waterhemp_RES2 ([13]; 62 g ai/ha): 75 | Plant response rating, Waterhemp_RES2 ([13]; 125 g ai/ha): 85 | Plant response rating, Waterhemp_RES2 ([13]; 250 g ai/ha): 90 | Plant response rating, Waterhemp_RES2 ([13]; 500 g ai/ha): 90
